pEC50, pKi: −log10 of the molar value. Structures can show the parent of a compound that is named as a salt. Where two headings read alike, the source gives them in different places.
Tests used:
h5-HT2A receptors = molecular target: T1, h5-HT2A receptors (Homo sapiens, UniProt P28223); assay: Functional activity, FLIPR calcium assay, CHO cells expressing h5-HT2A; assay type: cell-based; details: for h5-HT2A Relative Efficacy: maximum fluorescent signal relative to 10 μM 5-HT (defined as 100%)
T1 construct: expressed in transfected cells; host or cells: CHO cells
Experimental: (§1) The functional activity of compounds of formula (I) was assayed using a Fluorimetric Imaging Plate reader (FLIPR):
(§2) CHO cells expressing either the h5-HT2C or h5-HT2A receptors were counted and plated into standard 96 well microtitre plates before the day of testing to give a confluent monolayer. The following day the cells were dye-loaded with the calcium sensitive dye Fluo 3-AM by incubation with serum free culture maintenance media containing pluronic acid and Fluo 3-AM dissolved in DMSO at 37° C. in a CO2 incubator at 95% humidity for approximately 90 minutes. Unincorporated dye was removed by washing with Hanks balanced salt solution containing 20 mM HEPES and 2.5 mM probenecid (the assay buffer) using an automated cell washer to leave a total volume of 100 μl/well.
(§3) The drug (dissolved in 50 μL of assay buffer) was added at a rate of 70 μL/sec to each well of the FLIPR 96 well plate during fluorescence measurements. The measurements are taken at 1 sec intervals and the maximum fluorescent signal was measured (approx 10-15 secs after drug addition) and compared with the response produced by 10 μM 5-HT (defined as 100%) to which it is expressed as a percentage response (relative efficacy).Dose response curves were constructed using Graphpad Prism (Graph Software Inc.).

human 5-HT2B receptors = molecular target: T2, human 5-HT2B receptors (Homo sapiens, UniProt P41595); assay: Radioligand binding to 5-HT2B receptor ([3H]-5-HT, CHO cell line)
T2 construct: expressed in transfected cells; host or cells: CHO cell line
Experimental: (§4) 1. Binding to Serotonin Receptors
(§5) The binding of compounds of formula (I) to serotonin receptors was determined in vitro by standard methods. The preparations were investigated in accordance with the assays given hereinafter.
Method (b): For the binding to the 5-HT2B receptor the 5-HT2B receptors were radiolabelled with [^3H]-5-HT. The affinity of the compounds for human 5-HT2B receptors in a CHO cell line was determined according to the procedure of K. Schmuck, C. Ullmer, P. Engels and H. Lubbert, FEBS Lett., 1994, 342, 85-90.

h5-HT2C receptors = molecular target: T3, h5-HT2C receptors (Homo sapiens, UniProt P28335); assay: Functional activity, FLIPR calcium assay, CHO cells expressing h5-HT2C; assay type: cell-based; details: for h5-HT2C Relative Efficacy: maximum fluorescent signal relative to 10 μM 5-HT (defined as 100%)
T3 construct: expressed in transfected cells; host or cells: CHO cells
T3 sequence (P28335 33-458): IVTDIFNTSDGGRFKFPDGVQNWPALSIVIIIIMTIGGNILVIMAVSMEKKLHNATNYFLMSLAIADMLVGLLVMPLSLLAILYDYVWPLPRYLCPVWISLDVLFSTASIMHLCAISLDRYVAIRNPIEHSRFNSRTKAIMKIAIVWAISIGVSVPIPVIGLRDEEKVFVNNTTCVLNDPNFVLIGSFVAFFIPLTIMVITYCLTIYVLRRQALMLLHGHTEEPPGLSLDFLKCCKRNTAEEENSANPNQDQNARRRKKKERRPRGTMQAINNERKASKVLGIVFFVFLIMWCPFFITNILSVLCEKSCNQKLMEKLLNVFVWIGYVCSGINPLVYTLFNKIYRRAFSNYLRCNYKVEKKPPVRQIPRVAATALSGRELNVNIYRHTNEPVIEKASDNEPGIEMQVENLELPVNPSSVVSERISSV
Experimental: as §1, §2, §3

5-HT2A receptor = molecular target: T4, 5-HT2A receptor (Homo sapiens, UniProt P28223); assay: Radioligand binding to 5-HT2A receptor ([125I]-DOI, CHO cell line); details: read-out: Ki (2A)
T4 construct: expressed in transfected cells; host or cells: CHO cell line
Experimental: as §4, §5
Method (c): For the binding to the 5-HT2A receptor the 5-HT2A receptors were radiolabelled with [^125I]-DOI. The affinity of the compounds for 5-HT2A receptors in a CHO cell line was determined according to the procedure of D. J. McKenna and S. J. Peroutka, J. Neurosci., 1989, 9/10, 3482-90.

5-HT2C receptor = molecular target: T5, 5-HT2C receptor (Homo sapiens, UniProt P28335); assay: Radioligand binding to 5-HT2C receptor ([3H]-5-HT, CHO cell line); details: read-out: Ki (2C)
T5 construct: expressed in transfected cells; host or cells: CHO cell line
T5 sequence (P28335 33-458): T3 sequence (P28335 33-458)
Experimental: as §4, §5
Method (a): For the binding to the 5-HT2C receptor the 5-HT2C receptors were radiolabelled with [^3H]-5-HT. The affinity of the compounds for 5-HT2C receptors in a CHO cell line was determined according to the procedure of D. Hoyer, G. Engel and H. O. Kalkman, European J. Pharmacol., 1985, 118, 13-23.

[1] = [3H]-5-HT, human receptor, CHO cell line, read-out: Ki (2B)
[2] = FLIPR, Fluo 3-AM, CHO cells, read-out: h5-HT2C EC50

T1 sequence (P28223 whole entry): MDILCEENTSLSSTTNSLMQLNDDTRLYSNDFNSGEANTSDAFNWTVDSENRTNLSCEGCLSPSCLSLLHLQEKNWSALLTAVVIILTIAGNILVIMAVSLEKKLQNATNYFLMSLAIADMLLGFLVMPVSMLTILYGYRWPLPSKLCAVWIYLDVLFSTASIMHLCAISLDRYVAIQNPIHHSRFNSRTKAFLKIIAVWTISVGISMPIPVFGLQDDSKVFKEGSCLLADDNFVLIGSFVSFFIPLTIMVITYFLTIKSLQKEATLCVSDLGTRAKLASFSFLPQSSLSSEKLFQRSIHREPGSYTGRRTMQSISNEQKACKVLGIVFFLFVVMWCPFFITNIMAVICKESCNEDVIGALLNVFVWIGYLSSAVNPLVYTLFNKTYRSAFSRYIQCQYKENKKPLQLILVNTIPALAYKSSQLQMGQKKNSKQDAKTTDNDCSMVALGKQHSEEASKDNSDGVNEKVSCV
T4 sequence (P28223 whole entry): as above
T2 sequence (P41595 whole entry): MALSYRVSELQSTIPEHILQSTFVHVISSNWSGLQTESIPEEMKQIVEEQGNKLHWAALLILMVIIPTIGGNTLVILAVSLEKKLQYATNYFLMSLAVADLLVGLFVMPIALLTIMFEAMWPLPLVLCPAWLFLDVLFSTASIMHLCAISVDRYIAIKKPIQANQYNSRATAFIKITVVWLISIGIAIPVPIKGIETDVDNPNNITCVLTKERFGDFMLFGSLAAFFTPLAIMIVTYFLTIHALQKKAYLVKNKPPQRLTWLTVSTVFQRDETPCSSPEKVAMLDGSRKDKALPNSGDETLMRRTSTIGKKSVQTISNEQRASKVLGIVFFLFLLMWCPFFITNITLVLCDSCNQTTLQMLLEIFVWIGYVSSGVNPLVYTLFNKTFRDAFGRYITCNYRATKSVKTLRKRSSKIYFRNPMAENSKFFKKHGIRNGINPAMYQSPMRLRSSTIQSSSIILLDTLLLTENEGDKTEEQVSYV

SMILES | h5-HT2A Relative Efficacy (h5-HT2A receptors) | pKi (human 5-HT2B receptors) | pEC50 (h5-HT2C receptors) | h5-HT2C Relative Efficacy (h5-HT2C receptors) | pKi (5-HT2A receptor) | pKi (5-HT2C receptor) | pEC50 (h5-HT2A receptors; FLIPR, Fluo 3-AM, CHO cells) | pKi (human 5-HT2B receptors; [1]) | pEC50 (h5-HT2C receptors; [2]) | melting point
COc1cc2c(cc1F)C1CCCC1N2C[C@H](C)N (single isomer, unassigned; isomer i) [Example 19, (2′S)-1-[4-(7-Fluoro-1,2,3,3a,4,8b-hexahydro-6-methoxycyclopent[b]indolyl)]-2-propylamine isomer I 0.7 fumarate] | 0% | 6.29 | 6.41 | 84% | 5.94 | 7.06 | – | – | – | –
COc1c(F)ccc2c1C1CCCC1N2CC(C)N (mixture of isomers) [Example 20, (2′S)-[1-[4-(7-Fluoro-1,2,3,3a,4,8b-hexahydro-8-methoxycyclopent[b]indolyl)]-2-propylamine fumarate] | 17% | 6.44 | 6.33 | 62% | 6.32 | 6.50 | 5.26 | – | – | –
C[C@H](N)CN1c2cc(Cl)ccc2[C@@H]2CCC[C@@H]21 [Example 2, (2′S, 3aS, 8b5)-[1-[4-(6-Chloro-1,2,3,3a,4,8b-hexahydrocyclopent[b]indolyl)]-2-propylamine hydrochloride] | 7% | – | – | – | 6.14 | 6.88 | – | 6.52 | 6.23 | –
C[C@H](N)CN1c2cc(Cl)c(F)cc2C2CCCC21 (single isomer, unassigned; isomer i) [Example 10, (2′S)-1-[4-(6-Chloro-7-fluoro-1,2,3,3a,4,8b-hexahydrocyclopent[b]indolyl)]-2-propylamine isomer I fumarate] | 20% | – | – | – | 6.01 | 6.79 | – | 6.96 | 6.13 | –
NCCN1c2ccccc2[C@H]2CCC[C@H]21.O=C(O)/C=C/C(=O)O (racemic) | – | – | – | – | – | – | – | – | – | 172 °C (dec.)
